Data reported in PMC11256326, “Discovery of Heparin Mimetic, Potent, and Selective Inhibitors of Human Clotting Factor XIIIa” (ACS Omega, 2024).
Where “and” joins values, the source holds several entries; their conditions need not be identical. Equal entries are not always repeated. Where two headings read alike, the source gives them in different places. Marks after values point to notes of the source that are not given here.

How the values were obtained:
FXIIIa [1] = target: T1, FXIIIa (Homo sapiens, UniProt P00488); assay: bisubstrate, fluorescence-based trans-glutamination assay; format: biochemical; settings: for HS (Hill slope), FXIIIa inhibition: logistic fit eq 1; for IC50: pH 7.4, 37 °C, substrates dansylcadaverine and N,N-dimethylcasein
T1 construct: purchased Haematologic Technologies; host or cells: human plasma
T1 sequence (P00488 39-732 limits assumed): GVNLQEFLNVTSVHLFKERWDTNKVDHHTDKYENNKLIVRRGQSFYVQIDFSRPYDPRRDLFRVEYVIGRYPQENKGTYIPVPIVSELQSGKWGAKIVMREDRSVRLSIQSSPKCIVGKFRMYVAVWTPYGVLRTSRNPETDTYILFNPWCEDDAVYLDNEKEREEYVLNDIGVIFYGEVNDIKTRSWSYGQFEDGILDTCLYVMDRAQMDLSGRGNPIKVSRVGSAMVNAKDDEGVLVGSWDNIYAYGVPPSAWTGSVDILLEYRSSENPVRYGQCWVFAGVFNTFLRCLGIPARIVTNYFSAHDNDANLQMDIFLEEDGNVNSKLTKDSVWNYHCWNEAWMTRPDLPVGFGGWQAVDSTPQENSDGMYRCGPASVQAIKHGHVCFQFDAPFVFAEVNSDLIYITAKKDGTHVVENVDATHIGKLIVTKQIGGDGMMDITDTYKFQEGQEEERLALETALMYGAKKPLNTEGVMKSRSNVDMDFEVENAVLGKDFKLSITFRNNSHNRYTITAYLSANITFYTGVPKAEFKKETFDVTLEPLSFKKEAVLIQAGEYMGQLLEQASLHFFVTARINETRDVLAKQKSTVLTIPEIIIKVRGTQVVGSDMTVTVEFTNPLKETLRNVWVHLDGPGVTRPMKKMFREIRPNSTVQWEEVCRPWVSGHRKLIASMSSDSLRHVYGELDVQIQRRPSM
Text: A series of 27 sulfonated molecules (Figure 3) was screened for inhibition of human FXIIIa using a modified bisubstrate, fluorescence-based trans-glutamination assay, as described earlier.[36],[49] Dansylcadaverine and N,N-dimethylcasein were used as two substrates, which upon FXIIIa-dependence conjugation show a marked increase in fluorescence at 550 nm (λEX = 360 nm). The sulfonated molecules were structurally diverse given their number of anionic groups (mono- (inhibitors 24–27) to octa- (inhibitor 9)), number of building blocks (monomeric (molecules 26–29) to […] (inhibitor 14)), and the nature of the building block of oligomeric derivatives (benzamide derivatives (inhibitors 3–10, 24, and 25), triazine derivatives (inhibitors 11–14), and azo-naphthalene derivatives (molecules 15–22), and ureido-naphthalene derivative (23)) (Figure 3).
To measure the potency and efficacy of these inhibitors, the dose-dependence of FXIIIa inhibition was evaluated using logistic eq 1 (Table 1). The potency of inhibition refers to the IC50 (x-axis), whereas the efficacy refers to the net change in residual FXIIIa activity (ΔY%) (y-axis). Iodoacetamide, a nonselective inhibitor of thiol-containing enzymes, was used as a positive control.
To evaluate the effect of sulfonated molecules on human FXIIIa, a bisubstrate, fluorescence-based trans-glutamination assay was performed as we reported previously.[36],[49] Generally, 1 μL of the sulfonated molecule was diluted with 87 μL of pH 7.4 buffer (50 mM Tris-HCl, 1 mM CaCl2, 100 mM NaCl, and 2 mg/mL N,N-dimethylcasein) and 5 μL dithiothreitol (20 mM) at 37 °C followed by the addition of 2 μL of human FXIIIa (0.3 μM) and incubation for 10 min. The activity of FXIIIa was monitored following the addition of 5 μL of dansylcadaverine (2 mM) by measuring the initial rate of increase in fluorescence emission (λEx. = 360 nm and λEm. = 550 nm). Relative residual FXIIIa activity at each concentration of the inhibitor was calculated from the ratio of FXIIIa activity in the presence and absence of the inhibitor. Logistic eq 1 was used to fit the concentration dependence of residual FXIIIa activity to obtain the potency (IC50) and efficacy (ΔY%) of inhibition. [drawing 1] 1
This equation defines Y as the ratio of residual FXIIIa activity with the inhibitor present compared to its absence. YM represents the maximum possible value of residual FXIIIa activity, while YO denotes the minimum possible value. IC50 signifies the concentration of the inhibitor causing 50% enzyme activity inhibition, and HS represents the Hill slope. Determination of YM, YO, IC50, and HS values is achieved through nonlinear curve fitting of the experimental data.

normal human plasma [2] = assay: activated partial thromboplastin time (APTT) of normal human plasma; format: biochemical; settings: normal human plasma, in vitro
Experimental: (§1) To further evaluate the selectivity as well as the potential toxicity of inhibitors, we studied their effects on the clotting times of normal human plasma as well as their effects on the proliferation of three cell lines. On the one hand, the inhibitors’ effects on activated partial thromboplastin time (APTT) and prothrombin time (PT) were measured, as described earlier under in vitro conditions,[52]−[55] using variable concentrations (0–2000 μM) (Table 3). […] On the other hand, the antiproliferative properties of inhibitors 13 and 16 were evaluated in three cell lines of breast (MCF-7), intestine (CaCo-2), and kidney (HEK-293) (Figure 5B), as described earlier.[56] […] Overall, inhibitor 16 can be considered for further development as a potent, selective, and nontoxic inhibitor of human FXIIIa.
(§2) Clotting times, including activated partial thromboplastin time (APTT) and prothrombin time (PT), were assessed in normal human plasma utilizing the BBL Fibrosystem fibrometer from Becton–Dickinson, as detailed in previous publications.[51]−[54] For the PT assay, thromboplastin-D was dissolved in 4 mL of highly purified water and then warmed to 37 °C. Subsequently, 10 μL of the inhibitor was added to 90 μL of normal human plasma and incubated for 30 s. Following this, 200 μL of prewarmed PT reagent was added, and the clotting time was recorded. In the APTT assay, 10 μL of the inhibitor was combined with 90 μL of normal human plasma and 100 μL of prewarmed APTT reagent (0.2% ellagic acid). After incubation for 4 min at 37 °C, clotting was initiated by adding 100 μL of prewarmed 0.025 M CaCl2, and the clotting time was documented. Multiple concentrations of each molecule were employed in both assays to establish a concentration vs effect curve.

normal human plasma [3] = assay: prothrombin time (PT) of normal human plasma; format: biochemical; settings: in vitro
Experimental: as §1, §2

FXIIIa [4] = target: T1, FXIIIa; parameters: method as in PLoS One 11(7): e0160189; settings: ref PLoS One 11(7): e0160189; cited from earlier work

HS (Hill slope), FXIIIa inhibition (FXIIIa [1])	IC50 (FXIIIa [1])	SMILES	also measured
1.0 ± 0.1	23.6 ± 1.5 µM	CN(c1ccc2c(O)c(/N=N/c3ccccc3S(=O)(=O)O)c(S(=O)(=O)O)cc2c1)c1nc(Cl)nc(Nc2cccc(S(=O)(=O)O)c2)n1 [compound 12]	APTT2X (concentration required to double APTT) (normal human plasma [2]): 2067.59 ± 200 µM
	> 50 µM	Cc1ccc(C(=O)Nc2cc(S(=O)(=O)O)cc3ccc(S(=O)(=O)O)cc23)cc1NC(=O)Nc1cc(C(=O)Nc2cc(S(=O)(=O)O)cc3ccc(S(=O)(=O)O)cc23)ccc1C [compound 8]	FXIIIa inhibition at the highest concentration tested (FXIIIa [1]): did not inhibit
	> 1000 µM	Cc1ccc(C(=O)Nc2ccc(CP(=O)(O)O)cc2CP(=O)(O)O)cc1NC(=O)c1cccc(NC(=O)Nc2cccc(C(=O)Nc3cc(C(=O)Nc4ccc(CP(=O)(O)O)cc4CP(=O)(O)O)ccc3C)c2)c1 [compound 6]	
		O=C(Nc1ccc2c(O)cc(S(=O)(=O)O)cc2c1)Nc1ccc2c(O)cc(S(=O)(=O)O)cc2c1 [compound 23]	FXIIIa inhibition at the highest concentration tested (FXIIIa [1]): did not inhibit
1.0 ± 0.3	16.5 ± 5.3 µM	CC(=O)Nc1ccc2cc(S(=O)(=O)O)c(/N=N/c3ccc(S(=O)(=O)CCOS(=O)(=O)O)cc3)c(O)c2c1 [compound 15]	APTT2X (concentration required to double APTT) (normal human plasma [2]): >1667 µM
	> 50 µM	O=C(Nc1cccc(C(=O)Nc2cc(C(=O)Nc3ccc(S(=O)(=O)O)c4cc(S(=O)(=O)O)cc(S(=O)(=O)O)c34)ccc2F)c1)Nc1cccc(C(=O)Nc2cc(C(=O)Nc3ccc(S(=O)(=O)O)c4cc(S(=O)(=O)O)cc(S(=O)(=O)O)c34)ccc2F)c1 [compound 4]	FXIIIa inhibition at the highest concentration tested (FXIIIa [1]): did not inhibit
1.0 ± 0.2	77.2 ± 17.1 µM	Cc1ccc(C(=O)Nc2ccc(S(=O)(=O)O)c3cc(S(=O)(=O)O)cc(S(=O)(=O)O)c23)cc1NC(=O)c1cccc(NC(=O)Nc2cccc(C(=O)Nc3cc(C(=O)Nc4ccc(S(=O)(=O)O)c5cc(S(=O)(=O)O)cc(S(=O)(=O)O)c45)ccc3C)c2)c1 [compound 3]	
1.5 ± 0.8		O=C(Nc1ccc(C(=O)Nc2ccc(C(=O)Nc3ccc(S(=O)(=O)O)c4cc(S(=O)(=O)O)cc(S(=O)(=O)O)c34)cc2)cc1)Nc1ccc(C(=O)Nc2ccc(C(=O)Nc3ccc(S(=O)(=O)O)c4cc(S(=O)(=O)O)cc(S(=O)(=O)O)c34)cc2)cc1 [compound 5]	
1.5 ± 0.3	15.7 ± 2.1 µM	O=S(=O)(O)c1ccc(/N=N/c2ccc(/N=N/c3c(O)c(S(=O)(=O)O)cc4cc(S(=O)(=O)O)ccc34)c(S(=O)(=O)O)c2)cc1 [compound 17]	APTT2X (concentration required to double APTT) (normal human plasma [2]): 681.54 ± 65 µM; PT2X (concentration required to double PT) (normal human plasma [3]): 868.96 ± 91 µM
0.9 ± 0.2	162 ± 37.1 µM	O=C(Nc1cccc(C(=O)Nc2ccc(S(=O)(=O)O)c3cc(S(=O)(=O)O)cc(S(=O)(=O)O)c23)c1)Nc1cccc(C(=O)Nc2ccc(S(=O)(=O)O)c3cc(S(=O)(=O)O)cc(S(=O)(=O)O)c23)c1 [compound 7]	
0.9 ± 0.2	14.7 ± 3 µM	Cc1[nH]n(-c2cc(Cl)c(S(=O)(=O)O)cc2Cl)c(=O)c1/N=N/c1cc(Nc2nc(Cl)nc(Nc3ccc(S(=O)(=O)O)cc3)n2)ccc1S(=O)(=O)O [compound 11]	APTT2X (concentration required to double APTT) (normal human plasma [2]): 1102.72 ± 93 ^b μM; PT2X (concentration required to double PT) (normal human plasma [3]): >1667 µM
0.9 ± 0.2	286 ± 71.5 µM	O=C(Nc1cc(C(=O)Nc2ccc(S(=O)(=O)O)cc2S(=O)(=O)O)cc(C(=O)Nc2ccc(S(=O)(=O)O)cc2S(=O)(=O)O)c1)Nc1cc(C(=O)Nc2ccc(S(=O)(=O)O)cc2S(=O)(=O)O)cc(C(=O)Nc2ccc(S(=O)(=O)O)cc2S(=O)(=O)O)c1 [compound 9]	
		O=c1c(OS(=O)(=O)O)c(-c2ccc(OS(=O)(=O)O)c(OS(=O)(=O)O)c2)oc2cc(OS(=O)(=O)O)cc(OCCCOc3cc(-c4oc5cc(OS(=O)(=O)O)cc(OCCCOc6cc(OS(=O)(=O)O)cc7oc(-c8ccc(OS(=O)(=O)O)c(OS(=O)(=O)O)c8)c(OS(=O)(=O)O)c(=O)c67)c5c(=O)c4OS(=O)(=O)O)ccc3OS(=O)(=O)O)c12 [compound 2]	fold less potent than inhibitor 16 against FXIIIa (FXIIIa [1]): at least 15 fold; HS (Hill slope), FXIIIa inhibition (FXIIIa [4]): 1.1±0.5; IC50 (FXIIIa [4]): 118 ± 50 µM
	> 50 µM	O=C(Nc1cc(C(=O)Nc2ccc(S(=O)(=O)O)cc2)cc(C(=O)Nc2ccc(S(=O)(=O)O)cc2)c1)Nc1cc(C(=O)Nc2ccc(S(=O)(=O)O)cc2)cc(C(=O)Nc2ccc(S(=O)(=O)O)cc2)c1 [compound 10]	FXIIIa inhibition at the highest concentration tested (FXIIIa [1]): did not inhibit
		O=c1c(OS(=O)(=O)O)c(-c2ccc(OS(=O)(=O)O)c(OS(=O)(=O)O)c2)oc2cc(OS(=O)(=O)O)cc(OCCOc3cc(-c4oc5cc(OS(=O)(=O)O)cc(OCCOc6cc(OS(=O)(=O)O)cc7oc(-c8ccc(OS(=O)(=O)O)c(OS(=O)(=O)O)c8)c(OS(=O)(=O)O)c(=O)c67)c5c(=O)c4OS(=O)(=O)O)ccc3OS(=O)(=O)O)c12 [compound 1, reference compound]	fold less potent than inhibitor 16 against FXIIIa (FXIIIa [1]): at least 15 fold; HS (Hill slope), FXIIIa inhibition (FXIIIa [4]): 0.9 ±0.2

SMILES	HS (Hill slope), FXIIIa inhibition (FXIIIa [1])	IC50 (FXIIIa [1])	also measured
NC(=O)CI [Iodoacetamide, reference compound]	0.8 ± 0.2	~2.9 µM and 2.9 µM	
